Experimental data as given in patent US12728111B2, “Electrophilic compounds and electrophilic prodrugs for treating aneurysm” (University of Pittsburgh—Of the Commonwealth System of …, priority 2020, dated 2026).

Legend:
[1] = tested on: AngII/PCSK9-induced AAA mouse model; assay: Ang II plus hypercholesterolemia (AngII/PCSK9) induced AAA mouse model; assay type: in vivo
Method: FIG. 1. Characterization of the protective effect of NO2—OA (10-nitro-octadec-9-enoic acid) in the Ang II plus hypercholesterolemia-induced AAA mouse model. (A) Schematic illustration of the in vivo experimental design. Ten week old male C57BL/6 mice were IP injected with AAV carrying PCSK9 gain-of-function (D377Y) mutation and fed a western diet. After two weeks, each mouse was implanted with a pump delivering AngII at a rate of 1,500 ng/kg/min plus an additional pump containing either PEG-400 (vehicle), OA or NO2—OA with a delivery rate of 5 mg/kg/day (n=25 to 30 per group) and carried to the endpoint for another four weeks. Mice with ruptured aorta within the first week or with total plasma cholesterol less than 250 mg/dl were excluded from the study. (B) Representative morphological differences of the abdominal aorta. (C) AAA incidence calculated by using 1.2 mm as the cutoff diameter indicated by the dotted line in (D). (D) Average maximal diameter of the suprarenal aorta region. (E) Representative H&E and VVG staining of the paraffin-embedded suprarenal aortic cross-sections (5 μm). (F) Grade of elastic fiber degradation in the aorta (1 to 4). A 2×3 Fisher's exact test followed by posthoc test was performed for (C). For (D) and (F), the Kruskal-Wallis test followed by Dunn's multiple comparisons was performed. Continuous data are presented as mean±SEM. Scale bar=20 μm for (E). A p<0.05 for both the main test and post hoc test was considered statistically significant.
Ten weeks old male C57BL/6J mice were purchased from The Jackson Laboratory. The murine AAA model induced by AngII/PCSK9 gain-of-function mutation is well-established. After acclimation for 1 week, mice were fed a western diet (TD.88137, Envigo) and intraperitoneally injected with 2×1011 genomic copies of AAV-PCSK9.D377Y (AAV serotype 8, Penn Vector Core). Two weeks later, each mouse was subcutaneously implanted with two osmotic pumps (Model #2004, Alzet). One was loaded with AngII (#H-1706, Bachem), releasing at a rate of 1,500ng/kg/min, while the other one was loaded with PEG-400, OA or NO2—OA at a delivery rate of 5 mg/kg/day for OA or NO2—OA. After 4-weeks infusion, mice were euthanized and the maximal outer diameter of the suprarenal aorta was assessed with a digital caliper by a third person blinded to the treatment. Suprarenal aortas with a maximal diameter ≥50% larger than standard size (≥1.2 mm) were considered as abdominal aortic aneurysms. Mice dead within the first week of pump implantation or with a serum total cholesterol level less than 250 mg/dL were excluded from the study. All animal procedures were performed following the protocols approved by the Institutional Animal Care & Use Committee (IACUC) at the University of Michigan.
H&E and Verhoeff Van Gieson staining of paraffin or frozen sections of mouse suprarenal abdominal aorta were performed by the In-Vivo Animal Core at the University of Michigan. Elastin degradation grade was calculated as we previously reported.

oxLDL-treated BMDMs = assay: Cytokine ELISA in medium of oxLDL-treated BMDMs; assay type: cell-based, mouse; conditions: 2.5 μM, 8 h oxLDL, vs control
Method: FIG. 3. NO2—OA prevents oxLDL-induced NFκB activation and pro-inflammatory cytokine production. Primary BMDMs were pretreated with vehicle, OA (2.5 μM) or NO2—OA (2.5 μM) for 1 h, followed by treatment of oxLDL (50 to 100 μg/ml) for the indicated times. (A, B) Nuclear (A) and cytoplasmic protein (B) fractions were isolated 1 h after oxLDL treatment and subjected to western blot with antibodies against p65, lamin a/c (nuclear marker) and GAPDH (cytosolic marker). Representative western blot images of three independent experiments are shown. (C) Quantification of the p65 nuclear to cytoplasmic ratio by image studio (normalized by the internal control, n=3). (D-F) Following 8 h of oxLDL treatment, levels of IL6, MCP1 and TNFα in the cell medium were measured by ELISA (n=4). (G) Real-time PCR quantification of gene expression levels of IL1b and Mmp9 in total mRNA extracted from the BMDMs. (C) Ordinary one-way ANOVA followed by Tukey's test was performed. As of (D-F), the basal level contains several non-detectable values, so ordinary one-way ANOVA followed by correction of FDR were performed for the oxLDL-treated groups only. Ordinary one-way ANOVA followed by Tukey's test was performed for (G). Data presented as mean±SEM. A p<0.05 for both the main test and post hoc test was considered statistically significant.
Murine RAW 264.7 cell line, 293T/17 cell line and Primary Umbilical Vein Endothelial Cells (PCS-100-010, HUVECs) were purchased from ATCC (Manassas, VA) and cultured in DMEM (Gibco) with 10% FBS (Thermo Fisher Scientific) or M199 (Gibco) supplemented with 20% FBS for HUVECs. BMDMs isolated from 12 to 16-week-old C57BL/6 wild type mice were cultured in bone marrow macrophage differentiation media. The differentiation medium was prepared by adding L-cell conditioned media (30%), non-essential amino acids (#11140-050, Gibco), sodium pyruvate (1 mM, #11360-070, Gibco), 2-Mercaptoethanol (55 μM) and 10% FBS into Iscove's Modified Dulbecco's Medium (IMDM, Gibco).

CCCCCCCCC(=CCCCCCCCC(=O)O)[N+](=O)[O-] [NO2—OA, 10-nitro-octadec-9-enoic acid]
AAA incidence ([1]; 5 mg/kg/day subcutaneous infusion, after 4 weeks, cutoff diameter 1.2 mm): 28.6% | maximal diameter of the suprarenal aorta region ([1]; 5 mg/kg/day subcutaneous infusion, after 4 weeks, mean±SEM): 1.16±0.09 mm | ECM degradation / elastin fiber degradation ([1]; 5 mg/kg/day, 4 weeks, VVG staining, grade 1 to 4): significantly reduced | IL6 level in oxLDL-treated cell medium (oxLDL-treated BMDMs): significant decrease | MCP1 level in oxLDL-treated cell medium (oxLDL-treated BMDMs): marginally significant reduction | TNFα levels in oxLDL-treated cell medium (oxLDL-treated BMDMs): no significant difference
